We go through 40 compounds from patent publication US20230087118A1, “IMIDAZO[1,2-a][sequence] DERIVATIVES AND THEIR USE IN THE TREATMENT OF DISEASE” (priority 2019, published 2023).

Counter-ions that a name gives are not always drawn.

One experiment deals with T1, IRAK4 (Homo sapiens, UniProt Q9NWZ3).
T1 sequence (Q9NWZ3 1-460): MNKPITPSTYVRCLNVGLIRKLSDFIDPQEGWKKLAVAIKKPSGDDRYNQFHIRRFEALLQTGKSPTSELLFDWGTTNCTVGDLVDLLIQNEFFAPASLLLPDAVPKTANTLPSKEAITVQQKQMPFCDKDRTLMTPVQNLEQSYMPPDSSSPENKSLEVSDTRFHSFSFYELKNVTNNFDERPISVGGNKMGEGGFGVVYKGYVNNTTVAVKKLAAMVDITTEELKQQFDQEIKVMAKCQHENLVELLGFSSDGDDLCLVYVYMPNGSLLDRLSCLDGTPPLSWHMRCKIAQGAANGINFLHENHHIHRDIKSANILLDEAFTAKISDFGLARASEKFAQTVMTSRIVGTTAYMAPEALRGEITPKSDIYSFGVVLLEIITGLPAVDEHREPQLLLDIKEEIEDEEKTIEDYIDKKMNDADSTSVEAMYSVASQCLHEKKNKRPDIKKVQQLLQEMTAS
Put plainly: biochemical.
Details: not given
The term IC50 denotes the midpoint of a concentration-inhibition curve. Higher therefore signals lower potency. In turn, `CC(C)(C)c1cn2cc(C(=O)Nc3cccc(C(F)F)n3)c(OC3COC4(CC4)C3)cc2n1` (stereo not shown) [Example 268, 7-((4-Oxaspiro[2.4]heptan-6-yl)oxy)-2-(tert-butyl)-N-(6-(difluoromethyl)pyridin-2-yl)imidazo[1,2-a]pyridine-6-carboxamide] registered an IC50 of 0.0083 µM. In turn, `CC(C)Oc1nc2nc(C3C4COCC43)cn2cc1C(=O)Nc1ccn(C(F)F)n1` (stereo not shown) [Example 395, 2-(3-Oxabicyclo[3.1.0]hexan-6-yl)-N-(1-(difluoromethyl)-1H-pyrazol-3-yl)-7-isopropoxyimidazo[1,2-a]pyrimidine-6-carboxamide] gave an IC50 of 0.0057 µM. `Cc1cnc2c(NC(=O)c3cn4cc(C56COC(C)(C5)C6)nc4nc3OC3CCC3)cnn2c1` [Example 575, 7-Cyclobutoxy-2-(1-methyl-2-oxabicyclo[2.1.1]hexan-4-yl)-N-(6-methylpyrazolo[1,5-a]pyrimidin-3-yl)imidazo[1,2-a]pyrimidine-6-carboxamide] came in with an IC50 of 0.0007 µM.

Turning to `COc1c(C(=O)Nc2cccc(C(F)F)n2)cn2cc(C34COC(C)(C3)C4)nc2c1C` [Example 290, N-(6-(difluoromethyl)pyridin-2-yl)-7-methoxy-8-methyl-2-(1-methyl-2-oxabicyclo[2.1.1]hexan-4-yl)imidazo[1,2-a]pyridine-6-carboxamide], the IC50 amounted to 0.0276 µM. `COc1ncccc1NC(=O)c1cn2cc(C34CCOC(C)(C3)C4)nc2c(OC)n1` [Example 235]: the midpoint of inhibition, the IC50, lay at 0.0035 µM. The compound `CC(C)Oc1nc2nc([C@]34CC[C@](C)(C3)OC4)cn2cc1C(=O)Nc1cnn2cccnc12` (single isomer, unassigned) [Example 613] displayed an IC50 of 0.0005 µM. On the same count and under the same terms, in the case of `Cn1ccc(NC(=O)c2cn3cc(C45COC(C)(C4)C5)nc3nc2OC2CCCC2)n1` [Example 285, 7-(Cyclopentyloxy)-N-(1-methyl-1H-pyrazol-3-yl)-2-(1-methyl-2-oxabicyclo[2.1.1]hexan-4-yl)imidazo[1,2-a]pyrimidine-6-carboxamide] it was 0.006 µM; in that of `CC(C)Oc1cc2nc(C34COC(C3)C4)cn2cc1C(=O)Nc1ccn(C)n1` [Example 546, 2-(2-Oxabicyclo[2.1.1]hexan-4-yl)-7-isopropoxy-N-(1-methyl-1H-pyrazol-3-yl)imidazo[1,2-a]pyridine-6-carboxamide], 0.0086 µM; in that of `CC(C)Oc1cc2nc([C@@]34CC[C@@H](C3)OC4)cn2cc1C(=O)Nc1cccc(C(F)F)n1` (single isomer, unassigned) [Example 590], 0.0001 µM. Still for that read-out and setting: in the case of `CC(C)Oc1nc2nc([C@@]34CC[C@@](C)(C3)OC4)cn2cc1C(=O)Nc1cccn(C)c1=O` (single isomer, unassigned) [Example 652] it was 0.0005 µM. On the same count and under the same terms, in the case of `CC(C)Oc1cc2nc(C34CCC(C)(C3)OC4)cn2cc1C(=O)Nc1cnn2c1OCCC2` (stereo not shown) [Example 250] it was 0.0013 µM; in that of `CCOc1nc(C(=O)Nc2cc(F)ccc2OC)cn2cc(C34COC(C)(C3)C4)nc12` [Example 484, 8-Ethoxy-N-(5-fluoro-2-methoxyphenyl)-2-(1-methyl-2-oxabicyclo[2.1.1]hexan-4-yl)imidazo[1,2-a]pyrazine-6-carboxamide], 0.0073 µM. `CCOc1cc2nc([C@@H]3C[C@H]3F)cn2cc1C(=O)Nc1cccc(OC)n1` (single isomer, unassigned) [Example 67] registered an IC50 of 0.0397 µM. The same measure, in the same setting: in the case of `CCOc1nc(C(=O)Nc2cc(F)cn(C)c2=O)cn2cc([C@@H]3CCCOC3)nc12` (single isomer, unassigned) [Example 596] it was 0.0063 µM; in that of `COc1cc2nc(C3CCOCC3)cn2cc1C(=O)Nc1cccc2ccnn12` [Example 57, 7-Methoxy-N-(pyrazolo[1,5-a]pyridin-7-yl)-2-(tetrahydro-2H-pyran-4-yl)imidazo[1,2-a]pyridine-6-carboxamide], 0.0041 µM; in that of `CC(C)Oc1cc2nc([C@@]34CC[C@@](C)(C3)OC4)cn2cc1C(=O)Nc1cccc(C(F)F)n1` (single isomer, unassigned) [Example 609], 0.0001 µM. In turn, `COc1cc2nc(C3CCOCC3)cn2cc1C(=O)Nc1cccn(C(C)C)c1=O` [Example 192] gave an IC50 of 0.0429 µM. Same read-out and setting: in the case of `COc1cc2nc(C3CCOCC3)cn2cc1C(=O)Nc1cccn(CC(F)(F)F)c1=O` [Example 198] it was 0.0759 µM; in that of `COc1nc(C(=O)Nc2ccn(C(F)F)n2)cn2cc(C3CCOCC3)nc12` [Example 87], 0.0329 µM; in that of `COc1ncccc1NC(=O)c1cn2cc(C34COC(C)(C3)C4)nc2c(C)c1OC` [Example 291, 7-Methoxy-N-(2-methoxypyridin-3-yl)-8-methyl-2-(1-methyl-2-oxabicyclo[2.1.1]hexan-4-yl)imidazo[1,2-a]pyridine-6-carboxamide], 0.0125 µM. In the case of `CCOc1nc(C(=O)Nc2cccnc2OC(C)C)cn2cc(C34COC(C)(C3)C4)nc12` [Example 499, 8-Ethoxy-N-(2-isopropoxypyridin-3-yl)-2-(1-methyl-2-oxabicyclo[2.1.1]hexan-4-yl)imidazo[1,2-a]pyrazine-6-carboxamide], it took 0.0017 µM to reach half-maximal inhibition (IC50).

The compound `CC(C)Oc1nc2nc(C34COC(C)(C3)C4)cn2cc1C(=O)Nc1cccc2ncnn12` [Example 410, N-([1,2,4]triazolo[1,5-a]pyridin-5-yl)-7-isopropoxy-2-(1-methyl-2-oxabicyclo[2.1.1]hexan-4-yl)imidazo[1,2-a]pyrimidine-6-carboxamide] had a 50% inhibitory concentration (IC50) of 0.0002 µM.

Take `CCOc1nc(C(=O)Nc2cccc(C)c2F)cn2cc(C34COC(C)(C3)C4)nc12` [Example 496, 8-Ethoxy-N-(2-fluoro-3-methylphenyl)-2-(1-methyl-2-oxabicyclo[2.1.1]hexan-4-yl)imidazo[1,2-a]pyrazine-6-carboxamide]: the half-inhibitory concentration (IC50) turned out to be 0.0047 µM.

`COc1nc(C(=O)Nc2ccn(C)n2)cn2cc(C3CCOCC3)nc12` [Example 88]: the IC50 is 0.0509 µM.

In turn, `Cc1cnc2c(NC(=O)c3cn4cc(C56COC(C)(C5)C6)nc4cc3O[C@@H](C)C3CC3)cnn2c1` (single isomer, unassigned) [Example 658] displayed an IC50 of 0.0006 µM. In turn, `CC12CC(c3cn4cc(C(=O)Nc5ccn(C6CCC6)n5)c(OC5CCC5)cc4n3)(CO1)C2` [Example 524, 7-Cyclobutoxy-N-(1-cyclobutyl-1H-pyrazol-3-yl)-2-(1-methyl-2-oxabicyclo[2.1.1]hexan-4-yl)imidazo[1,2-a]pyridine-6-carboxamide] had an IC50 of 0.0111 µM. Take `CC(C)Oc1cc2nc([C@@]34CC[C@@](C)(C3)OC4)cn2cc1C(=O)Nc1ccn(C)n1` (single isomer, unassigned) [Example 606]: half-maximal inhibition (IC50) required 0.0023 µM. The compound `Cn1cccc(NC(=O)c2cn3cc(C45CCC(C)(C4)OC5)nc3cc2OC2CCCC2)c1=O` (stereo not shown) [Example 558] came in with an IC50 of 0.0011 µM. For `CCOc1cccc(NC(=O)c2cn3cc(C4CC4)nc3cc2OC(C)C)n1` [Example 481, 2-Cyclopropyl-N-(6-ethoxypyridin-2-yl)-7-isopropoxyimidazo[1,2-a]pyridine-6-carboxamide], the IC50 worked out at 0.0089 µM.

Consider `COc1cc2nc(C3CCOCC3)cn2cc1C(=O)Nc1ccc(O)nc1OC` [Example 188], for which the IC50 amounted to 0.326 µM.

As for `COc1cccc(NC(=O)c2cn3cc(C(C)(F)F)nc3cc2OC(C)C)n1` [Example 101], the IC50 came to 0.0175 µM.

The compound `Cn1ccc(NC(=O)c2cn3cc([C@]45CC[C@](C)(C4)OC5)nc3cc2OC2CCC2)n1` (single isomer, unassigned) [Example 611] came in with an IC50 of 0.0013 µM. For the compound `COc1cc2nc(C34CC(C)(CO3)C4)cn2cc1C(=O)Nc1ccccn1` [Example 4], half-maximal inhibition (IC50) was put at 0.235 µM. `CC(C)Oc1nc2nc(C34COC(C)(C3)C4)cn2cc1C(=O)Nc1ccccn1` [Example 354, 7-Isopropoxy-2-(1-methyl-2-oxabicyclo[2.1.1]hexan-4-yl)-N-(pyridin-2-yl)imidazo[1,2-a]pyrimidine-6-carboxamide] returned an IC50 of 0.0053 µM.

For the compound `CC(C)Oc1nc2nc(C34COC(C)(C3)C4)cn2cc1C(=O)Nc1cc(F)n(C)n1` [Example 360, N-(5-fluoro-1-methyl-1H-pyrazol-3-yl)-7-isopropoxy-2-(1-methyl-2-oxabicyclo[2.1.1]hexan-4-yl)imidazo[1,2-a]pyrimidine-6-carboxamide], 0.0111 µM corresponded to half-maximal inhibition (IC50).

The experiment is the same for the next values; noted with them: IRAK4 Biochemical Assay (1 mM ATP, 2 h) IC50 (μM), 1 mM ATP, 2 h, 100 pM IRAK4.
Compound `COc1cccc(NC(=O)c2cn3cc(C45COC(C)(C4)C5)nc3cc2OC(C)C)n1` [Example 97, 7-Isopropoxy-N-(6-methoxypyridin-2-yl)-2-(1-methyl-2-oxabicyclo[2.1.1]hexan-4-yl)imidazo[1,2-a]pyridine-6-carboxamide] registered an IC50 of 0.0003 µM.

On to `COc1cccc(NC(=O)c2cn3cc(C45CC(C)(C4)OC54COC4)nc3cc2OC)n1` [Example 28], for which the midpoint of inhibition, the IC50, lay at 0.0969 µM.

Regarding `COc1ncc(F)cc1NC(=O)c1cn2cc(C34COC(C)(C3)C4)nc2nc1OC(C)C` [Example 306, N-(5-fluoro-2-methoxypyridin-3-yl)-7-isopropoxy-2-(1-methyl-2-oxabicyclo[2.1.1]hexan-4-yl)imidazo[1,2-a]pyrimidine-6-carboxamide trifluoroacetate], the IC50 came out at 0.0031 µM. `CC(C)(C)c1cn2cc(C(=O)Nc3cnn4cccnc34)c(OC3CCC3)cc2n1` [Example 266, 2-(tert-Butyl)-7-cyclobutoxy-N-(pyrazolo[1,5-a]pyrimidin-3-yl)imidazo[1,2-a]pyridine-6-carboxamide trifluoroacetate] yielded a 50% inhibitory concentration (IC50) of 0.0013 µM. The same measure, in the same setting: with `COc1cccc(NC(=O)c2cn3cc(C4CCOCC4)nc3c(OC)n2)n1` [Example 77] the figure was 0.074 µM.
